Measurements as given in patent US20120225849A1, “2-Methoxyestradiol (2-ME2) Prodrug with Enhanced Bioavailability for Prophylaxis or Treatment of Cancerous or Non-Cancerous Condition” (The University of Kansas, priority 2011, published 2012).

Columns and labels:
[1] = Reference 13, cited from earlier work
[2] = Rat plasma pharmacokinetics of 2-ME2 after intravenous and oral dosing (cannulated rat model); assay type: in vivo, Sprague Dawley rats; conditions: for Bioavailability: AUC through 480 minutes
Protocol: The main compound of the present invention (2ME2-PD) and the native compound (8R,9S,13S,14S,17S)-2-methoxy-13-methyl-7,8,9,11,12,13,14,15,16,17-decahydro-6H-cyclopenta[a]phenanthren-17-ol (2-ME2) were dissolved independently in 0.1 M Captisol® at concentrations between 10 mg/mL and 21 mg/mL. The solutions were sterile filtered through 0.2 micron filters prior to use.
Animal studies were approved and conducted in accordance with the guidelines of the Institutional Animal Care and Use Committee. A cannulated rat model was used to study the intravenous (iv) and oral absorption 2-ME2 and 2-ME2-PD.
Sprague Dawley rats (male, 250-300 gram, Charles River Laboratories) were implanted with carotid artery, and jugular and/or femoral vein catheters. These studies were automated with the animals connected to the Culex Automated Pharmacology System allowing for direct comparison of pharmacokinetic behavior between the orally and iv administered compounds in the same animal. Following surgery, the animals were connected to the Culex and allowed to recover and acclimate. Fasted animals were dosed intravenously and orally with solutions of 2-ME2-PD in 0.1 M Captisol® (CyDex Pharmaceuticals, Inc) and 2-ME2 parent in 0.2 M HP-13-CD (Sigma-Aldrich).
Oral doses were given via gavage to the animal under light anesthesia. Blood was sampled at times ranging from five to 1440 minutes into heparinized vials stored on the chilled fraction collector, and remained there until sampling was complete. Blood samples were processed to plasma via centrifugation and stored at −80° C. until analysis for 2-ME2-PD, 2-ME2 and associated metabolite concentration by liquid chromatography-mass spectrometry (LC-MS/MS). Bioanalytical methods for the 2-ME2-PD and 2-ME2 analysis were modified from those of Lakhani et. al. Quantitation was made relative to deuterated internal standards.
Pharmacokinetic analysis of the resulting plasma concentration time data was performed using PK Solution software (Summit PK). Results for the studies conducted are illustrated in FIG. 1 and Table II (below). For oral doses of 2-ME2, no compound was found in plasma at all time points studied (<2 ng/mL LOQ). All samples from times greater than 480 minutes had 2-ME2 levels that were below the limit of quantitation.

OE33 xenografts = test: Growth of Barrett's esophageal adenocarcinoma (BEAC) OE33 xenografts in nude mice; assay type: in vivo; conditions: 75 mg/kg/day orogastric feeding, 8 days, versus vehicle control, listed as pro-2-ME2
Protocol: We injected ˜2.0×10^6 OE33 cells subcutaneously into the left hind leg flank of each nude mice […] for the development of tumor. The mice were divided into two groups (two mice per group) with a control group and Pro-2-ME2 treatment group. After forming palpable tumors, the nude mice bearing xenografts of OE33 cells were given daily pro-2-ME2 doses (75 mg/kg/day) by orogastric feeding or vehicle (control). Pro-2-ME2 was dissolved in 500 μl of saline water. We used 500 μl of saline water as a vehicle control. Tumor growth was monitored for 8 days by measuring two perpendicular diameters twice weekly. Tumor volume was calculated according to the formula V=a×b^2/2, where a and b are the largest and smallest diameters, respectively.

[3] = oxidation of 2-ME2 at the 17 position; References 3, 13 and 19; cited from earlier work
[4] = plasma 2-ME2, 2-ME2 intravenous 5.21 mg/kg
[5] = plasma 2-ME2, 2-ME2-PD intravenous 10 mg/kg
[6] = plasma 2-ME2, 2-ME2-PD oral 20 mg/kg, average of two animals
[7] = plasma 2-ME2, 2-ME2-PD oral 31.5 mg/kg

SMILES: COc1cc2c(cc1O)CC[C@@H]1[C@@H]2CC[C@]2(C)[C@@H](O)CC[C@@H]12 [2-ME2]
- orally administered dose of 2-ME2 recovered in the urine [1]: ~1%
- fraction of orally administered 2-ME2 dose recovered in the urine as metabolites ([1]; metabolites, animal and human studies): less than 1%
- fraction of orally administered 2-ME2 dose recovered in the urine ([1]; unchanged 2-ME2, animal and human studies): less than 0.1%
- Bioavailability ([2]; 2-ME2 intravenous 5.21 mg/kg (reference)): 100%
- 2-ME2 in plasma at all time points (LOQ) ([2]; oral doses of 2-ME2 (5.21 mg/kg), no compound found): < 2 ng/mL
- AUCt-480 [2, 4]: 19253 ng·min/mL
- Cmax [2, 4]: 1.221 µg/mL
- T1/2 [2, 4]: 0.983 h

SMILES: COc1cc2c(cc1OCOP(=O)([O-])[O-])CC[C@@H]1[C@@H]2CC[C@]2(C)[C@@H](OC(C)=O)CC[C@@H]12.[Na+].[Na+] [2-ME2-PD, disodium(((8R,9S,13S,14S,17S)-17-acetoxy-2-methoxy-13-methyl-7,8,9,11,12,13,14,15,16,17-decahydro-6H-cyclopenta[a]phenanthren-3-yl)oxy)methyl phosphate]
- growth of OE33 tumor implants (tumor volume) (OE33 xenografts): significantly inhibited
- Bioavailability ([2]; 2-ME2-PD intravenous 10 mg/kg, relative to 2ME2 iv and corrected for dose): 21.8%
- Bioavailability ([2]; 2-ME2-PD oral 20 mg/kg, relative to 2ME2 iv and corrected for dose, average of two animals): 4.4%
- Bioavailability ([2]; 2-ME2-PD oral 31.5 mg/kg, relative to 2ME2 iv and corrected for dose): 4.9%
- absolute bioavailabilities from oral administration ([2]; oral 2-ME2 prodrug, 0-480 minutes): 4-5%
- Cmax [2, 5]: 0.121 µg/mL
- T1/2 [2, 5]: 4.37 h
- AUCt-480 ([2]; plasma 2-ME2, 2-ME2-PD intravenous 10 mg/kg (corrected dose 6.06 mg/kg)): 4967 ng·min/mL
- AUCt-480 ([2]; plasma 2-ME2, 2-ME2-PD oral 20 mg/kg (corrected dose 12.13 mg/kg), average of two animals): 2006 ng·min/mL
- Cmax [2, 6]: 0.0084 µg/mL
- T1/2 [2, 6]: 13.4 h
- Cmax [2, 7]: 0.0099 µg/mL
- T1/2 [2, 7]: 6.85 h
- AUCt-480 ([2]; plasma 2-ME2, 2-ME2-PD oral 31.5 mg/kg (corrected dose 19.11 mg/kg)): 3516 ng·min/mL

SMILES: COc1cc2c(cc1O)CC[C@@H]1[C@@H]2CC[C@]2(C)C(=O)CC[C@@H]12 [2-methoxyestrone]
- loss in activity in vitro versus 2-ME2 [3]: 10-to 100 fold
